From ChEMBL document CHEMBL1201862, “PubChem BioAssay data set” (2004)
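All cell lines were grown in 96-well plates and treated with compound for 48 hours. Abbreviation: GI50, concentration required for 50% inhibition of growth.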 Calls of active or inactive are those of the source. Cut-off read from the data, not from the text of the source: active = GI50 up to about 1.1 µM and inactive = higher.

How the values were obtained:
Assay in all cases: growth of human tumour cells (NCI), 48 h
[1] = tested on: ACHN
[2] = tested on: CCRF-CEM
[3] = tested on: DLD-1
[4] = tested on: DU-145
[5] = tested on: EKVX
[6] = tested on: HOP-62
[7] = tested on: K562
[8] = tested on: LOX IMVI
[9] = tested on: M14
[10] = tested on: MCF7
[11] = tested on: MDA-MB-435
[12] = tested on: OVCAR-5
[13] = tested on: OVCAR-8
[14] = tested on: RXF 393
[15] = tested on: SF-295
[16] = tested on: SK-MEL-28
[17] = tested on: SK-OV-3
[18] = tested on: T47D
[19] = tested on: TK-10
[20] = tested on: UACC-257

Measured: GI50

C[C@@H](CN1CC(=O)NC(=O)C1)N1CC(=O)NC(=O)C1 [DEXRAZOXANE]
inactive: [1] 139 µM | [2] 21.4 µM | [3] 424 µM | [4] 255 µM | [5] 173 µM | [6] 66.8 µM | [7] 301 µM | [8] 236 µM | [9] 360 µM | [10] 24.4 µM | [11] 395 µM | [12] 372 µM | [13] 282 µM | [14] 272 µM | [15] 259 µM | [16] 458 µM | [17] 227 µM | [18] 109 µM | [19] 222 µM | [20] 492 µM
